Results: paper PMC3439832 (Journal of agricultural and food chemistry, 2011)
In brackets after ≈: the same amount, converted by molar mass. Several values for one entry are separate records, joined by “and”; a condition that tells them apart may be missing. Equal entries are not always repeated.

Tests used:
[1] = test system: anti-p,p′-DDE antibody (mouse polyclonal antibody, sera); assay: indirect competitive ELISA; format: binding; conditions: for % cross-reactivity: (IC50 p,p′-DDE/IC50 chemicals) × 100
human tissues = conditions: in human tissues; cited from earlier work
[2] = sera of mouse P3 at day 80, before the ELISA was optimized

| Compound | % cross-reactivity ([1]; pooled mouse sera) [%] | IC50 ([1]; pooled mouse sera, ic-ELISA) [µg/mL] | other results |
| --- | --- | --- | --- |
| OC(c1ccc(Cl)cc1)c1ccc(Cl)cc1 [DCBH] | 9.25 | 0.2433 (≈ 0.961 µM) |  |
| OCC(c1ccc(Cl)cc1)c1ccc(Cl)cc1 [DDOH, 2,2′-bis(4-chlorophenyl)ethanol] | 2.87 | 0.785 (≈ 2.94 µM) |  |
| OC(c1ccc(Cl)cc1)(c1ccc(Cl)cc1)C(Cl)(Cl)Cl [dicofol] |  | >22.5 |  |
| Clc1ccc(C(c2ccccc2Cl)C(Cl)Cl)cc1 (stereo not shown) [o,p′-DDD] | 5.00 | 0.45 (≈ 1.41 µM) |  |
| ClC(Cl)=C(c1ccc(Cl)cc1)c1ccccc1Cl [o,p′-DDE] | 0.64 | 3.5 (≈ 11 µM) |  |
| Clc1ccc(C(c2ccccc2Cl)C(Cl)(Cl)Cl)cc1 (stereo not shown) [o,p′-DDT] |  | >20 |  |
| O=C(c1ccc(Cl)cc1)c1ccc(Cl)cc1 [p,p′-DBP] | 0.27 | 8.357 (≈ 33.3 µM) |  |
| O=C(O)C(c1ccc(Cl)cc1)c1ccc(Cl)cc1 [p,p′-DDA] | 0.28 | 8.025 (≈ 28.5 µM) |  |
| Clc1ccc(C(c2ccc(Cl)cc2)C(Cl)Cl)cc1 [p,p′-DDD] | 112.5 | 0.02 (≈ 0.0625 µM) |  |
| ClC(Cl)=C(c1ccc(Cl)cc1)c1ccc(Cl)cc1 [p,p′-DDE, 1,1-Dichloro-2,2-bis(p-chlorophenyl) ethylene] | 100 | 0.0225 (≈ 0.0707 µM) | IC15 ([1]; developed ic-ELISA system): 0.0096 ± 0.0244 µg/mL and 0.0096 µg/mL; IC50 ([1]; g-DDOH-OVA as coating antigen): 0.69 µg/mL (≈ 2.17 µM); IC50 ([1]; s-DCBH-OVA as coating antigen): 0.06 µg/mL (≈ 0.189 µM); IC50 [1, 2]: ~0.08 µg/mL (≈ 0.252 µM); half-life (human tissues): 7–11 years |
| Clc1ccc(Cc2ccc(Cl)cc2)cc1 [p,p′-DDM] | 59.7 | 0.0377 (≈ 0.159 µM) |  |
| Clc1ccc(C(c2ccc(Cl)cc2)C(Cl)(Cl)Cl)cc1 [p,p′-DDT, 2,2-bis(p-chlorophenyl)-1,1,1-trichloroethane] | 6.62 | 0.34 (≈ 0.959 µM) | IC50 [1, 2]: about 2.85 μg/mL |
